{"source": "patent US20050107386A1", "about": "“Methods of treating diseases and disorders by targeting multiple kinases” (priority 2003, published 2005)", "type_in_all_cases": "biochemical", "key": {"CSK(h)": {"target": "CSK(h) (Homo sapiens, UniProt P41240)", "sequence (P41240 whole entry)": "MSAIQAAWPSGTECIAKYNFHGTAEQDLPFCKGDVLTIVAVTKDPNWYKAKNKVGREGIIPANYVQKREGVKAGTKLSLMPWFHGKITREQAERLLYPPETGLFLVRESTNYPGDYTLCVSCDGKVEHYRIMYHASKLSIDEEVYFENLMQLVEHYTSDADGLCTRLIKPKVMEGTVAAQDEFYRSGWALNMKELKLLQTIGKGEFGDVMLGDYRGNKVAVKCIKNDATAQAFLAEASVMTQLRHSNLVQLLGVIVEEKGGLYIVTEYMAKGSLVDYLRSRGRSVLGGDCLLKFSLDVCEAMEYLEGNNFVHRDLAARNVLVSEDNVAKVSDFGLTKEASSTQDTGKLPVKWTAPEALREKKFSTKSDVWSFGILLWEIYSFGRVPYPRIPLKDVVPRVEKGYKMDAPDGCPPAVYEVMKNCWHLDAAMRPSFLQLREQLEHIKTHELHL", "assay": "CSK(h) kinase assay", "settings": "3 μM; percent of control kinase activity", "description": "(§1) Six compounds (presumptive single agents) were tested against a panel of 50 kinases. The results are presented in Table 2; numbers for each kinase indicate the percent of control kinase activity in the presence of a 3μM concentration of the indicated agent.\n(§2) Agents that target two or more different kinases are useful in the methods of the invention as described elsewhere herein. Such compounds may be identified, and their effect on certain kinases may be identified, using the assays briefly described below in Examples 4-83. Each of these assays was carried out as described in Davies et al., Biochem. J., 351:95-105 (2000). All assays were carried out at 10 μM ATP unless otherwise noted.\n(§3) In a final reaction volume of 25 μl, CSK (h) (5-10 mU) is incubated with 50 mM Tris pH 7.5, 0.1 mM EGTA, 0.1 mM NaVanadate, 0.1% β-mercaptoethanol, 0.1 mg/ml poly(Glu, Tyr) 4:1, 10 mM MnCl2, 10 mM MgAcetate and [γ-^33P-ATP] (specific activity approx. 500 cpm/pmol, concentration as required). The reaction is initiated by the addition of Mg^2+ [γ-^33P-ATP]. After incubation for 40 minutes at room temperature, the reaction is stopped by the addition of 5 μl of a 3% phosphoric acid solution. 10 μl of the reaction is then spotted onto a Filtermat A and washed three times for 5 minutes in 75 mM phosphoric acid and once in methanol prior to drying and scintillation counting."}, "cSRC(h)": {"target": "cSRC(h) (Homo sapiens, UniProt P12931)", "sequence (P12931 whole entry)": "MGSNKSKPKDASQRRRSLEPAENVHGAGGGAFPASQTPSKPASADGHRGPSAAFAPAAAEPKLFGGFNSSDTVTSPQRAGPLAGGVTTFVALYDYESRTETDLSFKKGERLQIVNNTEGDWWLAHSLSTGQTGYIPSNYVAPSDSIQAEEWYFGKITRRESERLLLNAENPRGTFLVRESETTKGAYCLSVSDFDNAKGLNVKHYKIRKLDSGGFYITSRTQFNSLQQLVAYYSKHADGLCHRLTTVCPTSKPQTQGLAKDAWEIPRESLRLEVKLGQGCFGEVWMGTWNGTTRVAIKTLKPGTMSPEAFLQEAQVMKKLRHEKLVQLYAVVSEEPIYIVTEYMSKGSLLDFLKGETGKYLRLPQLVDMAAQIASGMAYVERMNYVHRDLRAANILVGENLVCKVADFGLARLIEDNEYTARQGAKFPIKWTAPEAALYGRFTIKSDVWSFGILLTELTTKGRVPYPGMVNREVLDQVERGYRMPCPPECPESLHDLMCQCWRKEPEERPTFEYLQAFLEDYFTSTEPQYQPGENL", "assay": "cSRC(h) kinase assay", "settings": "for Inhibitory activity (% of control), cSRC(h): 3 μM, percent of control kinase activity", "description": "as §1, §2\n(§4) In a final reaction volume of 25 μl, cSRC (h) (5-10 mU) is incubated with 8 mM MOPS pH 7.0, 0.2 mM EDTA, 250 μM […] (Cdc2 peptide; SEQ ID NO:7), 10 mM MgAcetate and [γ-^33P-ATP] (Specific activity approx. 500 cpm/pmol, concentration as required). The reaction is initiated by the addition of Mg^2+ [γ-^33P-ATP]. After incubation for 40 minutes at room temperature, the reaction is stopped by the addition of 5 μl of a 3% phosphoric acid solution. 10 μl of the reaction is then spotted onto a P30 filtermat and washed three times for 5 minutes in 75 mM phosphoric acid and once in methanol prior to drying and scintillation counting."}, "SGK(h)": {"target": "T1, SGK(h) (Homo sapiens, UniProt O00141)", "T1 sequence (O00141 1-431)": "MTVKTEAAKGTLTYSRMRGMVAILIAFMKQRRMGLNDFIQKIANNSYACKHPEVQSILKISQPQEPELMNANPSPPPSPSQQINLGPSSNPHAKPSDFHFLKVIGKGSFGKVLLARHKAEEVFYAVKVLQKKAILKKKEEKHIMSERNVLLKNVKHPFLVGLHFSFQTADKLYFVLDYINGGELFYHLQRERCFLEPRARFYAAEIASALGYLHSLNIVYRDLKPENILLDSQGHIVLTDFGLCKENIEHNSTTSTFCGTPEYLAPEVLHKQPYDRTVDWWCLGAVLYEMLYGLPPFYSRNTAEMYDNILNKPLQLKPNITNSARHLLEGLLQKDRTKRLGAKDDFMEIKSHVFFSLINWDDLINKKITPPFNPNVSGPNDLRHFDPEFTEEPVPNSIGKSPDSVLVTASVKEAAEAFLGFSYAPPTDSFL", "assay": "SGK(h) kinase assay", "settings": "3 μM; percent of control kinase activity", "description": "as §1, §2\nas §4, with “SGK(h)” for “cSRC (h)”, “30” for “250”, “(SEQ” for “(Cdc2 peptide; SEQ”, “NO:2),” for “NO:7),”, “(specific” for “(Specific”, “Mg^2+[γ-^33P-ATP].” for “Mg^2+ [γ-^33P-ATP].”"}, "PDGFRβ(h)": {"target": "PDGFRβ(h) (Homo sapiens, UniProt P09619)", "sequence (P09619 33-1106)": "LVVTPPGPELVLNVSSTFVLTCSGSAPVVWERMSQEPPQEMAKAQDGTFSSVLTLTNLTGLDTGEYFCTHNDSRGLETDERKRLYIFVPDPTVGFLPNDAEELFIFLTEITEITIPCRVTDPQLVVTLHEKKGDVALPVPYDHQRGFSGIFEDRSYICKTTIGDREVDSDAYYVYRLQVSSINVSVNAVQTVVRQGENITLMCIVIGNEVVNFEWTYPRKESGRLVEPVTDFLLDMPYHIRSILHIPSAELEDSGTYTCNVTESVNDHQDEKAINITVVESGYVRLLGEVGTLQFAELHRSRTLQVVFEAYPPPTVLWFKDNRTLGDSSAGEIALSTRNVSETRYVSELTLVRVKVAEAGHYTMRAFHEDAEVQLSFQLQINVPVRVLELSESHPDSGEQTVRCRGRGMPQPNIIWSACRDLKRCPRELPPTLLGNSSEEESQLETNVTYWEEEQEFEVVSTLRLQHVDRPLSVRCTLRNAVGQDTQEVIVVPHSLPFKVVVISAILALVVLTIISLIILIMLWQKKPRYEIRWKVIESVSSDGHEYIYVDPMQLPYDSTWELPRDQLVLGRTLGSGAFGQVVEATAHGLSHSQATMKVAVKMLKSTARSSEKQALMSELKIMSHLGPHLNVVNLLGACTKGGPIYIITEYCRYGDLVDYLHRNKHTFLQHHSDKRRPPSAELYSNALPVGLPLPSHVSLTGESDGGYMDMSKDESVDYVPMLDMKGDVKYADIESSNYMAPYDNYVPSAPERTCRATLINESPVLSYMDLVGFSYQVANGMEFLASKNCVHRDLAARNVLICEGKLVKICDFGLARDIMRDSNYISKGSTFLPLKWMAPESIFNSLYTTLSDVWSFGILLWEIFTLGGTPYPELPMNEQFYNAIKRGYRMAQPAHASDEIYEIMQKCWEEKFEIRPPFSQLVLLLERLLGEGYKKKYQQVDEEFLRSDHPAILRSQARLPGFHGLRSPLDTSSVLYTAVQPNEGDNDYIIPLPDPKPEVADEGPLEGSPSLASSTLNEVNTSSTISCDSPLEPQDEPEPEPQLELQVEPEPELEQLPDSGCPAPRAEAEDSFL", "assay": "PDGFRβ(h) kinase assay", "settings": "3 μM; percent of control kinase activity", "description": "as §1, §2\nas §3, with “μl, PDGFRβ” for “μl, CSK”, “with 8” for “with 50”, “mM MOPS” for “mM Tris”, “pH 7.0, 0.2” for “pH 7.5, 0.1”, “mM EDTA,” for “mM EGTA, 0.1 mM NaVanadate, 0.1% β-mercaptoethanol,”"}, "MEK1(h)": {"target": "MEK1(h) (Homo sapiens, UniProt Q02750)", "sequence (Q02750 whole entry)": "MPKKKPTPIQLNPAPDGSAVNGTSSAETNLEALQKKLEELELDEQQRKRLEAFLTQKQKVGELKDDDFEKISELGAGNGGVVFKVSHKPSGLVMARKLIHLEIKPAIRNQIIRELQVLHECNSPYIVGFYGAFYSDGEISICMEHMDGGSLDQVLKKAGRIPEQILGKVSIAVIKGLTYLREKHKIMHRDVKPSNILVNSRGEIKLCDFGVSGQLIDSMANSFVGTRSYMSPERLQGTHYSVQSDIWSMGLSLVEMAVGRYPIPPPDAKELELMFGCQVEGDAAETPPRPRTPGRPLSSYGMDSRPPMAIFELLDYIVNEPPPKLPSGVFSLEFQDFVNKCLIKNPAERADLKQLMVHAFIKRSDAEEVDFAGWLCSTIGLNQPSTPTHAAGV", "assay": "MEK1(h) kinase assay", "settings": "for Inhibitory activity (% of control), MEK1(h): 3 μM, percent of control kinase activity", "description": "as §1, §2\nThe reaction is initiated by the addition of the MgATP. After incubation for 40 minutes at room temperature, 5 μl of this incubation mix is used to initiate a MAPK2 (m) assay, which is described on […]."}}}
{"smiles": "CCN1CCC[C@H]1COc1ccc2cc(-c3n[nH]c4ccc(-c5nc(CC(C)(C)C)n[nH]5)cc34)ccc2c1", "note": "[CC005, 2-[((2s)-1-ethylpyrrolidin-2-yl)methoxy]-6-{5-[3-(2,2-Dimethylpropyl)(1H-1,2,4,-triazol-5-yl)](1H-indazol-3-yl)}naphthalene]", "values": [{"measurement": "Inhibitory activity (% of control), CSK(h)", "setting": "CSK(h)", "value": "88 % of control"}, {"measurement": "Inhibitory activity (% of control), cSRC(h)", "setting": "cSRC(h)", "value": "3 % of control"}, {"measurement": "Inhibitory activity (% of control), SGK(h)", "setting": "SGK(h)", "value": "4 % of control"}, {"measurement": "Inhibitory activity (% of control), PDGFRβ(h)", "setting": "PDGFRβ(h)", "value": "20 % of control"}, {"measurement": "Inhibitory activity (% of control), MEK1(h)", "setting": "MEK1(h)", "value": "2 % of control"}]}
{"smiles": "COc1ccc2cc(-c3n[nH]c4ccc(-c5n[nH]c(CN6CCOCC6)n5)cc34)ccc2c1", "note": "[CC001, 3-(6-Methoxynaphthalen-2-yl)-5-(5-Morpholin-4-Ylmethyl-1H-[1,2,4]Triazol-3-yl)-1H-Indazole]", "values": [{"measurement": "Inhibitory activity (% of control), CSK(h)", "setting": "CSK(h)", "value": "95 % of control"}, {"measurement": "Inhibitory activity (% of control), cSRC(h)", "setting": "cSRC(h)", "value": "2 % of control"}, {"measurement": "Inhibitory activity (% of control), SGK(h)", "setting": "SGK(h)", "value": "56 % of control"}, {"measurement": "Inhibitory activity (% of control), PDGFRβ(h)", "setting": "PDGFRβ(h)", "value": "94 % of control"}, {"measurement": "Inhibitory activity (% of control), MEK1(h)", "setting": "MEK1(h)", "value": "4 % of control"}]}
{"smiles": "CC(C)(C)Cc1nc(-c2ccc3[nH]nc(-c4ccc5cc(OCc6ccccn6)ccc5c4)c3c2)n[nH]1", "note": "[CC004, 5-[5-(2,2-Dimethyl-propyl)-1H-[1,2,4]triazol-3-yl]-3-[6-(pyridine-2-ylmethoxy)-naphthalen-2-yl]-1H-indazole]", "values": [{"measurement": "Inhibitory activity (% of control), CSK(h)", "setting": "CSK(h)", "value": "123 % of control"}, {"measurement": "Inhibitory activity (% of control), cSRC(h)", "setting": "cSRC(h)", "value": "67 % of control"}, {"measurement": "inhibitory activity against cSrc, in words", "setting": "cSRC(h); summary of Table 2", "value": "somewhat less inhibitory activity"}, {"measurement": "Inhibitory activity (% of control), SGK(h)", "setting": "SGK(h)", "value": "33 % of control"}, {"measurement": "Inhibitory activity (% of control), PDGFRβ(h)", "setting": "PDGFRβ(h)", "value": "91 % of control"}, {"measurement": "Inhibitory activity (% of control), MEK1(h)", "setting": "MEK1(h)", "value": "11 % of control"}, {"measurement": "inhibitory activity against MEK1, in words", "setting": "MEK1(h); summary of Table 2", "value": "good inhibitory activity"}]}
